Measured values taken from publication PMC3486420, “In Vitro and In Vivo Characterizations of Chiglitazar, a Newly Identified PPAR Pan-Agonist” (PPAR Research, 2012).

Tests used:
[1] = molecular target: T1, PPARδ (Homo sapiens, UniProt Q03181); assay: PPARδ transactivation reporter gene assay in U2OS cells; format: cell-based; details: U2OS cells
T1 construct: expressed in transfected cells; host or cells: SMMC-7721 or U2OS
T1 sequence (Q03181 1-441): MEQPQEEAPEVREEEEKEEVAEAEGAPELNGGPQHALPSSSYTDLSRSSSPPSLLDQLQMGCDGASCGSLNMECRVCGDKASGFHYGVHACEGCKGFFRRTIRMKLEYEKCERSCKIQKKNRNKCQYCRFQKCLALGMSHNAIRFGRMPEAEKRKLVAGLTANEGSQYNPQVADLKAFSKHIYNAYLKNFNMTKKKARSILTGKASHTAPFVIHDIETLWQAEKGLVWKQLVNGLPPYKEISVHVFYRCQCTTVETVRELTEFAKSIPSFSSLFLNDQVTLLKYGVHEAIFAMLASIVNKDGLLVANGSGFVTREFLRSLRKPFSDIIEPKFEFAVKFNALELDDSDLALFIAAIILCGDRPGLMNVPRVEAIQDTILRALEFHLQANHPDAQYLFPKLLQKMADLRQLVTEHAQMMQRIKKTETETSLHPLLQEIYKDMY
T1 sequence (P19793 1-462 partner): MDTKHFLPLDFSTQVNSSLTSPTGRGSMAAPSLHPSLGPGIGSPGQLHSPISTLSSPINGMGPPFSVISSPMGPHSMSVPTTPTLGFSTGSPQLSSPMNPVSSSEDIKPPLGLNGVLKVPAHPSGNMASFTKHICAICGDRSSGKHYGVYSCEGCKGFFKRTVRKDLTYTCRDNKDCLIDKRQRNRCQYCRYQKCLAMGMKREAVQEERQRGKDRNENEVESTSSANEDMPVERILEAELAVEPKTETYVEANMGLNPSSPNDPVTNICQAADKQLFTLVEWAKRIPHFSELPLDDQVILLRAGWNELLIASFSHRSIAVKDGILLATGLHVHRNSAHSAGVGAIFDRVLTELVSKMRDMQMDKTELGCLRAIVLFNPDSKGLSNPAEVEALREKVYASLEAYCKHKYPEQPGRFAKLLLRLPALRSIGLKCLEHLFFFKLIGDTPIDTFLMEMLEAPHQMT

[2] = test system: C2C12 cells; assay: Gene expression by RT-PCR in C2C12 cells; format: cell-based, mouse; details: 48 h, 10 μM chiglitazar, 50 μM WY14643, 5 μM 2-Bro, compared with rosiglitazone 10 μM
From the text: cDNAs for human retinoid X receptor (hRXR), PPARα, PPARγ, and PPARδ were obtained by reverse transcriptase polymerase chain reaction (RT-PCR) from human liver or adipose tissues. Amplified cDNAs were cloned into pcDNA3.1 expression vector (Invitrogen, Carlsbad, CA, USA). The integrity and fidelity of all constructs made were verified by DNA sequencing. Luciferase reporter plasmids, ACOX promoter for PPARγ and pHD(X3)-luc for PPARα, were kind gifts of Drs. TM McIntyre (University of Utah, USA) and RA Rachubinski (University of Alberta, Canada), respectively. PPRE-luc for PPARδ was constructed based on the previous report by insertion of the annealed oligonucleotides having four copies of the CYP4A6 PPRE (4 × […]) into the upstream of the luciferase coding sequence in pGL3-promoter vector (Promega, Madison, WI, USA). pCMVβGal was purchased from Clontech (Palo Alto, CA, USA). The mouse 3T3-L1 preadipocyte cell line, skeletal muscle C2C12 cell line, and macrophage RAW267.4 cell line and the human osteosarcoma U2OS cell line were obtained from the American Type Culture Collection (ATCC, Rockville, MD, USA). The human hepatoma SMMC-7721 cell line was obtained from the Cell Culture Center of Chinese Academy of Medical Sciences (Beijing, China). Cell lines were cultured in medium of DMEM (3T3-L1, C2C12, and SMMC-7721), RPMI 1640 (RAW267.4), or McCoy's 5A (U2OS), containing 10% fetal bovine serum (FBS), 50 μg/mL streptomycin, and 50 units/mL penicillin at 37°C in a humidified incubator with 5% CO2.
Total RNA was extracted from cells or tissues with an RNeasy minikit (Qiagen, Valencia, CA, USA). The first-strand cDNA was synthesized using the oligo(dT) primers, followed by using SuperScript II reverse transcriptase (Invitrogen) according to the manufacturer's instructions. […] PCR products were analyzed by electrophoresis on a 1.5% agarose gel stained with ethidium bromide. […]

[3] = test system: KKAy mice; assay: Oral treatment of diabetic KKAy mice (glucose, body weight); format: in vivo, mouse
From the text: Male db/db mice (BKS.Cg-m +/+ LEPR^db) in 6-7 weeks were purchased from The Jackson Laboratory (Bar Harbor, ME, USA). Male KKAy and C57BL/6J mice in 8–10 weeks were obtained from the Institute of Animal Science, Chinese Academy of Medical Sciences and Peking Union Medical College (Beijing, China). Animals were randomly sorted into different treatment groups (8–10 per group). […] Plasma glucose levels were examined at various time points by Accu-Chek Advantage II Glucose Strips (Roche Diagnostics, Basel, Switzerland) and measured by Accu-Chek Advantage (Roche Diagnostics). Animals were sacrificed 24 h after the last dosing and abdominal fat pad, liver, and skeletal muscle from KKAy mice and abdominal fat pad from db/db mice were taken for gene expression analysis.
Figure 2 In vivo effects on blood glucose control and insulin sensitization of chiglitazar. […] Plasma glucose (a and b) and insulin (c) levels were measured at the indicated time points. […] Data are expressed as mean ± SE.
Figure 4 Influence in body and abdominal fat pad weights of chiglitazar. […] Changes in body weight were evaluated at the indicated days (b), and the fat pads were weighed from the scarified animals at day 15 (c). ^# P < 0.05 compared with day 0, and *P < 0.05 compared with Ctrl. n = 8 per group for KKAy, and n = 10 per group for db/db. Data are expressed as mean ± SE.

## O=C(c1ccc(F)cc1)c1ccccc1NC(Cc1ccc(OCCn2c3ccccc3c3ccccc32)cc1)C(=O)O (centres unmarked) [Chi, 2-[(2-(4-fluorobenzoyl)phenyl)amino]-3-[4-(2-carbazolylethoxy)-phenyl]-propionic acid]
[1]; 24 h treatment, luciferase reporter, hRXR cotransfected, ia: inactive at 10 μM, read-out: PPARδ EC50
  EC50: 1.5 ± 0.2 µM
[1]; max response compared with 2-Bro at 10 μM
  PPARδ % Max: 244%
[2]
  Expression of PPARα and/or PPARδ downstream genes CPT-1a and CPT-1b: more significantly upregulated
[3]; 5 and 20 mg kg^−1 oral daily, 12 days, in comparison with rosiglitazone 5 mg kg^−1
  Body weight: did not increase
[3]; oral daily, 5 to 20 mg kg^−1, 12 days
  BG (blood glucose) levels: significantly lowered
